Reference: PMC6738653, “The (p)ppGpp-binding GTPase Era promotes rRNA processing and cold adaptation in Staphylococcus aureus” (PLoS Genetics, 2019)

Assays:
[1] = target: T1, Era (Staphylococcus aureus, UniProt Q2FY06); experiment: DRaCALA with […]-ppGpp; format: binding
T1 sequence (Q2FY06 1-299): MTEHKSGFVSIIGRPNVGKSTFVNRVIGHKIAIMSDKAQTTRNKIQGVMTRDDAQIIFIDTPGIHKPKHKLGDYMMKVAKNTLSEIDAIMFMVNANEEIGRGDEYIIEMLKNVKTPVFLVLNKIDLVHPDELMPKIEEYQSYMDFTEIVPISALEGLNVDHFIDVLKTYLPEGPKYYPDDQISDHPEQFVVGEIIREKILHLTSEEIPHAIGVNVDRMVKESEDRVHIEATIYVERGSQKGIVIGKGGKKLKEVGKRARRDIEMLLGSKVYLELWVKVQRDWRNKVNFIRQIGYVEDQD

[2] = target: Era fused to the SB (small bit of luciferase) (S. aureus); experiment: split reporter (BiFC, NanoBiT); split luciferase (SB and LB fusions from pAP118) in S. aureus LAC*; 100 ng/ml Atet for 90 min, normalised to OD600 0.1, Nano-Glo Luciferase Assay; positive only if increased over both negative controls

Nc1nc2c(ncn2[C@@H]2O[C@H](COP(=O)(O)OP(=O)(O)O)[C@@H](OP(=O)(O)OP(=O)(O)O)[C@H]2O)c(=O)[nH]1 [ppGpp]
Kd [1]: 3.1 ± 0.4 µM

full-length CshA fused to LB (large bit of luciferase) (natural protein)
fold increase in luciferase activity upon co-expression [2]: 4 fold
